Activity calls are given as the source filed them. The rule behind the calls is not given here.
What was measured:
[1] = in vitro; conditions: PAMPA
Description: Effective permeability of compound in PBS/EtOH buffer (7:3) at 25 ug/ml incubated for 18 hrs by PAMPA-BBB assay

[2] = target: Cholinesterase (Homo sapiens, UniProt P06276); experiment: Inhibition of human BChE using butyrylthiocholineiodide as substrate incubated for 10 mins by Ellman's method
[3] = target: Glycogen synthase kinase-3 beta (Homo sapiens, UniProt P49841); experiment: biochemical
Description: Inhibition of recombinant human N-terminal His6-tagged GSK3beta H350L mutant expressed in baculovirus infected Sf21 cells using prephosphorylated polypeptide as substrate incubated for 1 min followed by substrate addition and measured after 30 mins by Kinase-Glo luminescence assay

[4] = target: Acetylcholinesterase (Homo sapiens, UniProt P22303); experiment: Inhibition of human recombinant AChE expressed in HEK293 cells using acetylthiocholine iodide as substrate incubated for 10 mins by Ellman's method; assay type: cell-based
[5] = Ratio of drug level in ICR mouse brain to blood at 15 mg/kg, po measured after 90 mins by LC-MS/MS analysis; assay type: ADME, organism-based; conditions: 1.5 h
[6] = Clearance in Sprague-Dawley rat at 10 mg/kg, po measured upto 24 hrs by LC-MS/MS analysis; assay type: ADME, organism-based; conditions: in vivo
[7] = Half life in Sprague-Dawley rat at 5 mg/kg, iv measured upto 24 hrs by LC-MS/MS analysis; assay type: ADME, organism-based; conditions: in vivo
[8] = tested on: BV-2; experiment: Anti-inflammatory activity in mouse BV-2 cells assessed as reduction in LPS-induced IL-1beta production incubated for 1 hr followed by LPS stimulation and measured after 24 hrs by ELISA; assay type: functional, cell-based; conditions: dose 2-8 µM, time 25.0 hrs
[9] = Tmax in Sprague-Dawley rat at 10 mg/kg, po measured upto 24 hrs by LC-MS/MS analysis; assay type: ADME, organism-based; conditions: in vivo
[10] = tested on: BV-2; experiment: Anti-inflammatory activity in mouse BV-2 cells assessed as reduction in LPS-induced TNFalpha expression at 4 uM incubated for 1 hr followed by LPS stimulation and measured after 24 hrs by immunofluorescence based laser confocal microscopy; assay type: functional, cell-based; conditions: time 25.0 hrs
[11] = Volume of distribution in Sprague-Dawley rat at 5 mg/kg, iv measured upto 24 hrs by LC-MS/MS analysis; assay type: ADME, organism-based; conditions: in vivo
[12] = AUC (0 to 24 hrs) in Sprague-Dawley rat at 5 mg/kg, iv measured upto 24 hrs by LC-MS/MS analysis; assay type: ADME, organism-based; set-up: route intravenous, dose 5 mg/kg, time <=24; conditions: in vivo
[13] = tested on: BV-2; experiment: Anti-inflammatory activity in mouse BV-2 cells assessed as reduction in LPS-induced TNFalpha production incubated for 1 hr followed by LPS stimulation and measured after 24 hrs by ELISA; assay type: functional, cell-based; conditions: dose 2-8 µM, time 25.0 hrs
[14] = Cmax in Sprague-Dawley rat at 10 mg/kg, po measured upto 24 hrs by LC-MS/MS analysis; assay type: ADME, organism-based; set-up: route oral, dose 10 mg/kg, time <=24; conditions: in vivo
[15] = tested on: BV-2; experiment: Cytotoxicity against mouse BV-2 cells assessed as effect on cell morphology; assay type: cell-based
[16] = Clearance in Sprague-Dawley rat at 5 mg/kg, iv measured upto 24 hrs by LC-MS/MS analysis; assay type: ADME, organism-based; conditions: in vivo
[17] = Toxicity in ICR mouse assessed as reduction in body weight at 15 mg/kg, po; assay type: organism-based; conditions: in vivo
[18] = AUC (0 to infinity) in Sprague-Dawley rat at 10 mg/kg, po by LC-MS/MS analysis; assay type: ADME, organism-based; set-up: route oral, time infinity, dose 10 mg/kg; conditions: in vivo
[19] = Half life in Sprague-Dawley rat at 10 mg/kg, po measured upto 24 hrs by LC-MS/MS analysis; assay type: ADME, organism-based; conditions: in vivo
[20] = Plasma concentration in ICR mouse at 15 mg/kg, po measured after 90 mins by LC-MS/MS analysis; assay type: ADME, organism-based
[21] = Volume of distribution in Sprague-Dawley rat at 10 mg/kg, po measured upto 24 hrs by LC-MS/MS analysis; assay type: ADME, organism-based; conditions: in vivo
[22] = Cmax in Sprague-Dawley rat at 5 mg/kg, iv measured upto 24 hrs by LC-MS/MS analysis; assay type: ADME, organism-based; set-up: route intravenous, dose 5 mg/kg, time <=24; conditions: in vivo
[23] = MRT (0 to t) in Sprague-Dawley rat at 10 mg/kg, po measured upto 24 hrs by LC-MS/MS analysis; assay type: ADME, organism-based; conditions: in vivo
[24] = Drug uptake in mouse BV-2 cells at 25 uM incubated for 1 hr measured per million cells by LC-MS/MS analysis; assay type: ADME, cell-based; conditions: bv-2, 1 h
[25] = AUC (0 to infinity) in Sprague-Dawley rat at 5 mg/kg, iv by LC-MS/MS analysis; assay type: ADME, organism-based; set-up: route intravenous, dose 5 mg/kg; conditions: in vivo
[26] = tested on: BV-2; experiment: Anti-inflammatory activity in mouse BV-2 cells assessed as reduction in LPS-induced ROS production at 3 uM incubated for 1 hr followed by LPS stimulation and measured after 24 hrs by DCFH-DA staining based inverted fluorescence microscopy; assay type: functional, cell-based; conditions: time 25.0 hrs
[27] = MRT (0 to t) in Sprague-Dawley rat at 5 mg/kg, iv measured upto 24 hrs by LC-MS/MS analysis; assay type: ADME, organism-based; conditions: in vivo
[28] = Tmax in Sprague-Dawley rat at 5 mg/kg, iv measured upto 24 hrs by LC-MS/MS analysis; assay type: ADME, organism-based; conditions: in vivo
[29] = Toxicity in ICR mouse model of scopolamine-induced cognitive dysfunction assessed as effect on locomotor activity by measuring effect on swimming speed at 15 mg/kg, po by Morris water maze test; assay type: organism-based; conditions: in vivo
[30] = AUC (0 to 24 hrs) in Sprague-Dawley rat at 10 mg/kg, po measured upto 24 hrs by LC-MS/MS analysis; assay type: ADME, organism-based; set-up: route oral, dose 10 mg/kg, time <=24; conditions: in vivo
[31] = tested on: BV-2; experiment: Anti-inflammatory activity in mouse BV-2 cells assessed as reduction in LPS-induced IL-1beta expression at 4 uM incubated for 1 hr followed by LPS stimulation and measured after 24 hrs by immunofluorescence based laser confocal microscopy; assay type: functional, cell-based; conditions: time 25.0 hrs
[32] = Oral bioavailability in Sprague-Dawley rat at 10 mg/kg measured upto 24 hrs by LC-MS/MS analysis; assay type: ADME, organism-based; conditions: in vivo
[33] = AUC (0 to 24 hrs) in Sprague-Dawley rat at 10 mg/kg, iv measured upto 24 hrs by LC-MS/MS analysis; assay type: ADME, organism-based; set-up: route intravenous, dose 10 mg/kg, time <=24; conditions: in vivo
[34] = Clearance in Sprague-Dawley rat at 10 mg/kg, iv measured upto 24 hrs by LC-MS/MS analysis; assay type: ADME, organism-based; conditions: in vivo
[35] = Cmax in Sprague-Dawley rat at 10 mg/kg, iv measured upto 24 hrs by LC-MS/MS analysis; assay type: ADME, organism-based; set-up: route intravenous, dose 10 mg/kg, time <=24; conditions: in vivo
[36] = Half life in Sprague-Dawley rat at 10 mg/kg, iv measured upto 24 hrs by LC-MS/MS analysis; assay type: ADME, organism-based; conditions: in vivo
[37] = Volume of distribution in Sprague-Dawley rat at 10 mg/kg, iv measured upto 24 hrs by LC-MS/MS analysis; assay type: ADME, organism-based; conditions: in vivo
[38] = AUC (0 to infinity) in Sprague-Dawley rat at 10 mg/kg, iv by LC-MS/MS analysis; assay type: ADME, organism-based; set-up: time infinity, route intravenous, dose 10 mg/kg; conditions: in vivo
[39] = MRT (0 to t) in Sprague-Dawley rat at 10 mg/kg, iv measured upto 24 hrs by LC-MS/MS analysis; assay type: ADME, organism-based; conditions: in vivo
[40] = Tmax in Sprague-Dawley rat at 10 mg/kg, iv measured upto 24 hrs by LC-MS/MS analysis; assay type: ADME, organism-based; conditions: in vivo

Chain of Glycogen synthase kinase-3 beta (P49841 whole entry): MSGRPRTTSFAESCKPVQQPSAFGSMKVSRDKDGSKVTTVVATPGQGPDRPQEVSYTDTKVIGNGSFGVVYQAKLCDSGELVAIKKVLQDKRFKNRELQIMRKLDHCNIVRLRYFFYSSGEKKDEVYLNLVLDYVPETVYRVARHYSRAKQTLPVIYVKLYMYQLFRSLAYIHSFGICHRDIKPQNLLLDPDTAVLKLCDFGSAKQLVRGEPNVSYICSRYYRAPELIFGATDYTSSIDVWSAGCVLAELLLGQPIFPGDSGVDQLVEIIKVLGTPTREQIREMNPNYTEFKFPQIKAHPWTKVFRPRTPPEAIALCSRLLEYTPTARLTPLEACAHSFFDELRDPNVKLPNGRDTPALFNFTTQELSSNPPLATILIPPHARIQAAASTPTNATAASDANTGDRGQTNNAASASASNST
Chain of Cholinesterase (P06276 whole entry): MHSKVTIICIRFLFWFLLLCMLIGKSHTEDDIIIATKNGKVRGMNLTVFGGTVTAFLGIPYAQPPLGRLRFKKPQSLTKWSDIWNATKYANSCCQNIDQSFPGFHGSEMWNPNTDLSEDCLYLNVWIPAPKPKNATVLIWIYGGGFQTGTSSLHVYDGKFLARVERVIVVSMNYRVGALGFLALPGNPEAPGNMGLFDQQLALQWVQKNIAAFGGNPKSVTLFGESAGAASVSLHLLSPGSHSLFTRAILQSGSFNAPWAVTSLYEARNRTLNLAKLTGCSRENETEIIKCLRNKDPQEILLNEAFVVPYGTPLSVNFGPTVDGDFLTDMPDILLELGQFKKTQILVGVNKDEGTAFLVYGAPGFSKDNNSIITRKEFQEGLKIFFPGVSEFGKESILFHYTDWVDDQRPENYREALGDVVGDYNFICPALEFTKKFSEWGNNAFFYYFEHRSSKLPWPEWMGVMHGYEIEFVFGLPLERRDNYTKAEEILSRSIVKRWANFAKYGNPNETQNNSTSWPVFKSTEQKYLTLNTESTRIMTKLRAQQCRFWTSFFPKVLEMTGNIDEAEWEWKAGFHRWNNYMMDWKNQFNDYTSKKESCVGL
Chain of Acetylcholinesterase (P22303 whole entry): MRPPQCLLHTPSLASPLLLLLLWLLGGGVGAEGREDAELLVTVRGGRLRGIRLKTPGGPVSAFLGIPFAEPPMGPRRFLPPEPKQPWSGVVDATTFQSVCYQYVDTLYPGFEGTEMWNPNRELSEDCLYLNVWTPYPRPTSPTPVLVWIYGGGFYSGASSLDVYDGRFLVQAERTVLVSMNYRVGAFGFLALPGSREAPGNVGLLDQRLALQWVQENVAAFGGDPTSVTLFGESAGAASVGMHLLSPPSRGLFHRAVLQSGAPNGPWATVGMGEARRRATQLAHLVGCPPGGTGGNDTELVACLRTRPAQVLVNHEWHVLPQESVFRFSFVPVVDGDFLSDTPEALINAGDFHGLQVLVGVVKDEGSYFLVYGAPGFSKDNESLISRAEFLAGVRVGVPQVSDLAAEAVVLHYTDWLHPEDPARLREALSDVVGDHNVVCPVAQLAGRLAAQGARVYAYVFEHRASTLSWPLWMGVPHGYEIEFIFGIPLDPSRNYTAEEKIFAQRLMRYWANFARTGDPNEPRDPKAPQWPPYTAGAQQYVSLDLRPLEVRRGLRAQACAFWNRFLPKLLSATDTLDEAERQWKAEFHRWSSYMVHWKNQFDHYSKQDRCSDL

Q: What does the source list for `NC(=O)c1sc(-c2ccnc(NC(=O)C3CC3)c2)nc1OCCCC1CCN(Cc2cccc(F)c2)CC1`?
A: Papp at 18 h, 25 ug/ml [1]: 8.6 ×10⁻⁶ cm/s; IC50 [2]: 1.8 µM; IC50 [3]: 0.009 µM; IC50 [4]: 3 µM

Q: With `CNC(=O)c1sc(-c2ccnc(NC(=O)C3CC3)c2)nc1OCC1CCN(Cc2ccc(F)c(F)c2)CC1` as the molecule, how does the IC50 [2] read?
A: 20 µM

Q: What about the IC50 [3] of the same molecule?
A: 0.062 µM

Q: And the IC50 [4]?
A: 80 µM

Q: With `NC(=O)c1sc(-c2ccnc(NC(=O)C3CC3)c2)nc1OCCC1CCN(Cc2ccccc2Cl)CC1` as the molecule, how does the Papp at 18 h, 25 ug/ml [1] read?
A: 6.8 ×10⁻⁶ cm/s

Q: And the IC50 [2]?
A: 301 µM

Q: What about the IC50 [3] of the same molecule?
A: 0.027 µM

Q: What about the IC50 [4] of the same molecule?
A: 3.7 µM

Q: Which Papp at 18 h, 25 ug/ml [1] does the source give for `NC(=O)c1sc(-c2ccnc(NC(=O)C3CC3)c2)nc1OCCC1CCN(Cc2cccc(F)c2)CC1` here?
A: 7 ×10⁻⁶ cm/s

Q: And the IC50 [2]?
A: 295 µM

Q: And the IC50 [3]?
A: 0.026 µM

Q: And the IC50 [4]?
A: 4.7 µM

Q: Which results are given for `NC(=O)c1sc(-c2ccnc(NC(=O)C3CC3)c2)nc1OCCCC1CCN(Cc2ccccc2)CC1`?
A: Ratio [5]: 9.2 ng/kg; Papp at 18 h, 25 ug/ml [1]: 10.9 ×10⁻⁶ cm/s; CL/F [6]: 296 mL/min/kg; half-life [7]: 6.3 h; Activity [8]: Dose-dependent effect; IC50 [2]: 20.6 µM; Tmax [9]: 8 h; Activity [10]: Active; Vd [11]: 30.7 L/kg; AUC(0-t) [12]: 1680 ng·h/mL; Activity [13]: Dose-dependent effect; Cmax [14]: 44.1 ng/mL; Activity [15]: Non-Toxic; IC50 [3]: 0.008 µM; clearance [16]: 50.1 mL/min/kg; Activity [17]: Non-Toxic; AUC(0-inf) [18]: 453 ng·h/mL; half-life [19]: 3.9 h; concentration at 1.5 h [20]: 84.9 ng/mL; Vd [21]: 77 L/kg; Cmax [22]: 771 ng/mL; IC50 [4]: 0.38 µM; MRT last at 24 h [23]: 9.2 h; Drug uptake [24]: 103 ng; AUC(0-inf) [25]: 1760 ng·h/mL; Activity [26]: Active; MRT last at 24 h [27]: 5.1 h; Tmax [28]: 4.98 min; Activity [29]: Non-Toxic; AUC(0-t) [30]: 440 ng·h/mL; Activity [31]: Active; bioavailability [32]: 15.1%

Q: Which IC50 [3] does the source give for `COc1cc2c(cc1OC)C(=O)C(CC1CCN(Cc3ccccc3)CC1)C2` (stereo not drawn) [DONEPEZIL] here?
A: > 1 µM

Q: For `NC(=O)c1sc(-c2ccnc(NC(=O)C3CC3)c2)nc1OCCC1CCN(Cc2ccccn2)CC1`, which IC50 [2] is on record?
A: 86.1 µM

Q: And the IC50 [3]?
A: 0.193 µM

Q: What about the IC50 [4] of the same molecule?
A: 6.6 µM

Q: Which results are given for `CNC(=O)c1sc(-c2ccnc(NC(=O)C3CC3)c2)nc1OCC1CCN(Cc2ccc(Br)cc2)CC1`?
A: IC50 [2]: 68 µM; IC50 [3]: 0.026 µM; IC50 [4]: > 1000 µM

Q: Which IC50 [2] does the source give for `NC(=O)c1sc(-c2ccnc(NC(=O)C3CC3)c2)nc1O` here?
A: > 1000 µM

Q: What about the IC50 [3] of the same molecule?
A: 0.011 µM

Q: And the IC50 [4]?
A: > 1000 µM

Q: Which Papp at 18 h, 25 ug/ml [1] does the source give for `CCn1cc(C(=O)O)c(=O)c2cc(F)c(N3CCNC(C)C3)c(F)c21` (stereo not drawn) [LOMEFLOXACIN] here?
A: 0.9 ×10⁻⁶ cm/s

Q: Which Papp at 18 h, 25 ug/ml [1] does the source give for `NC(=O)c1sc(-c2ccnc(NC(=O)C3CC3)c2)nc1OCCC1CCN(Cc2c(F)cccc2F)CC1` here?
A: 6.8 ×10⁻⁶ cm/s

Q: What about the IC50 [2] of the same molecule?
A: 1.9 µM

Q: What about the IC50 [3] of the same molecule?
A: 0.005 µM

Q: What about the IC50 [4] of the same molecule?
A: 19.5 µM

Q: Which Papp at 18 h, 25 ug/ml [1] does the source give for `NC(=O)c1sc(-c2ccnc(NC(=O)C3CC3)c2)nc1OCC1CCN(Cc2ccccc2)CC1` here?
A: 6.4 ×10⁻⁶ cm/s

Q: What about the CL/F [6] of the same molecule?
A: 267 mL/min/kg

Q: What about the IC50 [2] of the same molecule?
A: 12.7 µM

Q: What about the Tmax [9] of the same molecule?
A: 4.5 h

Q: What about the AUC(0-t) [33] of the same molecule?
A: 1540 ng·h/mL

Q: And the clearance [34]?
A: 104 mL/min/kg

Q: What about the Cmax [14] of the same molecule?
A: 67.3 ng/mL

Q: And the IC50 [3]?
A: 0.094 µM

Q: What about the AUC(0-inf) [18] of the same molecule?
A: 688 ng·h/mL

Q: And the half-life [19]?
A: 4.5 h

Q: What about the Cmax [35] of the same molecule?
A: 507 ng/mL

Q: What about the Vd [21] of the same molecule?
A: 93.6 L/kg

Q: What about the half-life [36] of the same molecule?
A: 6.7 h

Q: What about the IC50 [4] of the same molecule?
A: 1.5 µM

Q: And the MRT last at 24 h [23]?
A: 8.1 h

Q: What about the AUC(0-t) [30] of the same molecule?
A: 622 ng·h/mL

Q: And the Vd [37]?
A: 55.2 L/kg

Q: What about the bioavailability [32] of the same molecule?
A: 40.7%

Q: And the AUC(0-inf) [38]?
A: 1820 ng·h/mL

Q: What about the MRT last at 24 h [39] of the same molecule?
A: 9.1 h

Q: And the Tmax [40]?
A: 6 min

— ChEMBL document CHEMBL4680314, “Discovery of potent glycogen synthase kinase 3/cholinesterase inhibitors with neuroprotection as potential therapeutic agent for Alzheimer's disease” (Bioorg Med Chem, 2021)
